{"source": "patent US20260315499A1", "about": "“2'- {HETEROCYCLYL (ARYL/ALKYL) METHYL} - CANNABIDIOL COMPOUNDS AND PROCESS FOR PREPARATION THEREOF” (COUNCIL OF SCIENTIFIC & INDUSTRIAL RESEARCH, priority 2023, published 2026)", "test_system": "depression mice model", "assay": "In vivo corticosterone induced depression model: Tail Suspension Test (TST)", "parameters": "species or system mouse (male C57)", "conditions": "A1 20 mg/kg, fluoxetine 18 mg/kg", "experimental": "A1 (20 mg/kg, oral) dissolved in normal saline was given for 3 consecutive weeks following corticosteroid stress. The sucrose preference test was employed, tail suspension test, and forced swim test to evaluate behavioral distress.\nTail Suspension Test (TST) is a behavioral test employed to assess perturbations expected to influence depression like phenotypes. TST is grounded on the reflection that the extent of immobility is allied with depressing phenotype of mice overturned by antidepressants. Mice were positioned 2 cm from their tail tips and 5 cm above the ground suspending the tails using adhesive tape for the free movement (Acta Neuropathol Commun., 2016, 4(1), 108).\nThe contemporary immobility was alluded to as interruption in motion, where a blind assessor evaluates the disappointed aspect of display before scoring it.", "note": "Where “and” joins values, the source holds several entries; their conditions need not be identical. Identical values can stand only once."}
{"molecule": "C=C(C)[C@@H]1CCC(C)=C[C@H]1c1c(O)cc(CCCCC)c(CN2CCOCC2)c1O", "note": "[A1, 2′-(morpholin-1-ylmethyl)-cannabidiol]", "values": [{"measurement": "% Immobility (sec) ± SD (dead time)", "setting": "with Cort. 35 μg/ml", "value": "33.05 ± 5.62", "unit": "s"}, {"measurement": "% Latency to immobility (sec) ± SD", "setting": "with Cort. 35 μg/ml", "value": "36.90 ± 14.54", "unit": "s"}, {"measurement": "% Immobility (sec) ± SD (dead time)", "setting": "without Cort.", "value": "28.76 ± 9.01 s and 28.76 ± 9.10 s"}, {"measurement": "% Latency to immobility (sec) ± SD", "setting": "without Cort.", "value": "54.35 ± 9.74", "unit": "s"}]}
